Reference: US7855165B2, “Herbicide composition for paddy field” (Bayer Cropscience AG, priority 2007, dated 2010)
Where two headings read alike, the source gives them in different places.

Columns and labels:
[1] = system: Monochoria vaginalis Presl; assay: Test Example 1: effect of the herbicide composition against paddy field weeds (pot test, green house); type: in vivo; conditions: Pontederia vaginalis, 504 h, read-out: Herbicidal effect (%) MOOVP; for pest or weed control at 2.5 g/ha: 2.5 g/ha single; for pest or weed control at 5 g/ha: 5 g/ha single
Description: (§1) • Component (a) (a-1): compound No. 1 (ref: the aforementioned Table A) • (a-2): compound No. 3 (same as above) • (a-3): compound No. 11 (same as above) • Component (b) the aforementioned (b-1)-(b-15) • Component (c) the aforementioned (c-1)-(c-3) <Preparation of Test Agents> • Carrier: Acetone 5 parts by weight • Surfactant: Benzyloxy polyglycol ether 1 part by weight The above-mentioned carrier and surfactant and 1 part by weight of active compounds (component (a) and component (b) or component (c)) are mixed and the obtained formulations are diluted with water to prepare the test agents of the prescribed chemicals amount (preparations).
(§2) In a green house, seeds or tubers of Monochoria vaginalis Presl, annual broad-leaves (Lindernia procumbens Philcox, Rotala indica Koehne, Elatine triandra Schk, Ammannia multiflora Roxb., etc.), Cyperus serotinus Rottboel, and Sagittaria pygmaea Miq were inoculated to paddy field soil filled in a 500 cm^2 pot and brought to a submerged condition of about 2-3 cm. At 1.5-2 leafstage of each weed prescribed diluted solution of preparation of each active compound and each herbicide in the following table was applied on water surface each singly or simultaneously. After the treatment, the submerged condition of 3 cm was maintained and the herbicidal effect was studied 3 weeks after the treatment. The herbicidal effect was evaluated as 100% in case of complete death and 0% in case of no effect.
(§3) In the tables, MOOVP represents Monochoria vaginalis Presl, BBBBB represents annual broad-leaves, CYPSE represents Cyperus serotinus Rottboel and SAGPY represents Sagittaria pygmaea Miq.

Sagittaria pygmaea Miq = assay: as above; type: in vivo; conditions: Sagittaria pygmaea, 504 h, read-out: Herbicidal effect (%) SAGPY; for pest or weed control at 2.5 g/ha: 2.5 g/ha single; for pest or weed control at 5 g/ha: 5 g/ha single
Description: as §1, §2, §3

[2] = system: Cyperus serotinus Rottboel; assay: as above; type: in vivo; conditions: Cyperus serotinus, 504 h, read-out: Herbicidal effect (%) CYPSE; for pest or weed control at 2.5 g/ha: 2.5 g/ha single; for pest or weed control at 5 g/ha: 5 g/ha single
Description: as §1, §2, §3

[3] = as above; type: in vivo, annual broad-leaves; conditions: 504 h, read-out: Herbicidal effect (%) BBBBB; for pest or weed control at 2.5 g/ha: 2.5 g/ha single; for pest or weed control at 5 g/ha: 5 g/ha single
Description: as §2, with “At 1.5-2 leafstage of each weed prescribed diluted solution of preparation of each active compound and each herbicide in the following table was applied on water surface each singly or simultaneously.” left out
as §3

[4] = 1.5 g/ha single, 3 weeks after treatment
[5] = 3 g/ha single, 3 weeks after treatment
[6] = 50 g/ha single, 3 weeks after treatment
[7] = 100 g/ha single, 3 weeks after treatment
[8] = 75 g/ha single, 3 weeks after treatment
[9] = 150 g/ha single, 3 weeks after treatment
[10] = 200 g/ha single, 3 weeks after treatment
[11] = 400 g/ha single, 3 weeks after treatment
[12] = 300 g/ha single, 3 weeks after treatment
[13] = 600 g/ha single, 3 weeks after treatment
[14] = 20 g/ha single, 3 weeks after treatment
[15] = 40 g/ha single, 3 weeks after treatment

## COc1cc(OC)nc(Oc2cccc(Oc3nc(OC)cc(OC)n3)c2C(=O)O)n1 [(b-7), bispyribac-sodium]
[1]; 3 weeks after treatment
  pest or weed control at 2.5 g/ha: 0%
  pest or weed control at 5 g/ha: 10%
Sagittaria pygmaea Miq; 3 weeks after treatment
  pest or weed control at 2.5 g/ha: 0%
  pest or weed control at 5 g/ha: 30%
[2]; 3 weeks after treatment
  pest or weed control at 2.5 g/ha: 20%
  pest or weed control at 5 g/ha: 60%
[3]; 3 weeks after treatment
  pest or weed control at 2.5 g/ha: 10%
  pest or weed control at 5 g/ha: 10%

## COC(=O)c1ccccc1CS(=O)(=O)NC(=O)Nc1nc(OC)cc(OC)n1 [(b-12), bensulfuron-methyl]
[1]; 3 weeks after treatment
  pest or weed control at 2.5 g/ha: 30%
  pest or weed control at 5 g/ha: 60%
Sagittaria pygmaea Miq; 3 weeks after treatment
  pest or weed control at 2.5 g/ha: 50%
  pest or weed control at 5 g/ha: 50%
[2]; 3 weeks after treatment
  pest or weed control at 2.5 g/ha: 40%
  pest or weed control at 5 g/ha: 40%
[3]; 3 weeks after treatment
  pest or weed control at 2.5 g/ha: 50%
  pest or weed control at 5 g/ha: 60%

## CCOc1ccccc1OS(=O)(=O)NC(=O)Nc1nc(OC)cc(OC)n1 [(b-13), ethoxysulfuron]
[1]; [4]
  pest or weed control at 1.5 g/ha: 65%
[1]; [5]
  pest or weed control at 3 g/ha: 70%
Sagittaria pygmaea Miq; [4]
  pest or weed control at 1.5 g/ha: 65%
Sagittaria pygmaea Miq; [5]
  pest or weed control at 3 g/ha: 65%
[2]; [4]
  pest or weed control at 1.5 g/ha: 0%
[2]; [5]
  pest or weed control at 3 g/ha: 0%
[3]; [4]
  pest or weed control at 1.5 g/ha: 40%
[3]; [5]
  pest or weed control at 3 g/ha: 70%

## COc1cnc(OC)n2nc(NS(=O)(=O)c3c(OCC(F)F)cccc3C(F)(F)F)nc12 [(b-5), penoxsulam]
[1]; [6]
  pest or weed control at 50 g/ha: 75%
[1]; [7]
  pest or weed control at 100 g/ha: 90%
Sagittaria pygmaea Miq; [6]
  pest or weed control at 50 g/ha: 65%
Sagittaria pygmaea Miq; [7]
  pest or weed control at 100 g/ha: 85%
[2]; [6]
  pest or weed control at 50 g/ha: 70%
[2]; [7]
  pest or weed control at 100 g/ha: 70%
[3]; [6]
  pest or weed control at 50 g/ha: 50%
[3]; [7]
  pest or weed control at 100 g/ha: 90%

## CCN(C(=O)n1nnn(-c2ccccc2Cl)c1=O)C1CCCCC1 [(b-8), fentrazamide]
[1]; [8]
  pest or weed control at 75 g/ha: 40%
[1]; [9]
  pest or weed control at 150 g/ha: 60%
Sagittaria pygmaea Miq; [8]
  pest or weed control at 75 g/ha: 30%
Sagittaria pygmaea Miq; [9]
  pest or weed control at 150 g/ha: 30%
[2]; [8]
  pest or weed control at 75 g/ha: 30%
[2]; [9]
  pest or weed control at 150 g/ha: 30%
[3]; [8]
  pest or weed control at 75 g/ha: 40%
[3]; [9]
  pest or weed control at 150 g/ha: 70%

## COP(=S)(OC)SCC(=O)N(c1ccc(Cl)cc1)C(C)(C)C [(b-1), anilofos]
[1]
  pest or weed control at 100 g/ha: 10%
  pest or weed control at 200 g/ha: 10%
Sagittaria pygmaea Miq
  pest or weed control at 100 g/ha: 10%
  pest or weed control at 200 g/ha: 10%
[2]
  pest or weed control at 100 g/ha: 0%
  pest or weed control at 200 g/ha: 0%
[3]
  pest or weed control at 100 g/ha: 0%
  pest or weed control at 200 g/ha: 0%

## CC(C)(NC(=O)C(Br)C(C)(C)C)c1ccccc1 (stereo not drawn) [(b-14), bromobutide]
[1]; [10]
  pest or weed control at 200 g/ha: 30%
[1]; [11]
  pest or weed control at 400 g/ha: 95%
Sagittaria pygmaea Miq; [10]
  pest or weed control at 200 g/ha: 10%
Sagittaria pygmaea Miq; [11]
  pest or weed control at 400 g/ha: 10%
[2]; [10]
  pest or weed control at 200 g/ha: 40%
[2]; [11]
  pest or weed control at 400 g/ha: 60%
[3]
  pest or weed control at 200 g/ha: 20%
  pest or weed control at 400 g/ha: 30%

## CN(C(=O)COc1nc2ccccc2s1)c1ccccc1 [(b-9), mefenacet]
[1]; [12]
  pest or weed control at 300 g/ha: 65%
[1]; [13]
  pest or weed control at 600 g/ha: 80%
Sagittaria pygmaea Miq; [12]
  pest or weed control at 300 g/ha: 10%
Sagittaria pygmaea Miq; [13]
  pest or weed control at 600 g/ha: 10%
[2]; [12]
  pest or weed control at 300 g/ha: 30%
[2]; [13]
  pest or weed control at 600 g/ha: 30%
[3]; [12]
  pest or weed control at 300 g/ha: 30%
[3]; [13]
  pest or weed control at 600 g/ha: 40%

## CC1=C(c2ccccc2)C(=O)N(C(C)(C)c2cc(Cl)cc(Cl)c2)CO1 [(b-10), oxaziclomefone]
[1]; [14]
  pest or weed control at 20 g/ha: 10%
[1]; [15]
  pest or weed control at 40 g/ha: 20%
Sagittaria pygmaea Miq; [14]
  pest or weed control at 20 g/ha: 0%
Sagittaria pygmaea Miq; [15]
  pest or weed control at 40 g/ha: 10%
[2]; [14]
  pest or weed control at 20 g/ha: 0%
[2]; [15]
  pest or weed control at 40 g/ha: 0%
[3]
  pest or weed control at 20 g/ha: 40%
  pest or weed control at 40 g/ha: 40%
